Experimental data from ChEMBL document CHEMBL4339194 (J Med Chem, 2019).

Experiments:
[1] = test system: MDA-MB-231; assay: Cytotoxicity against human MDA-MB-231 cells assessed as reduction in cell viability measured after 72 hrs by MTS assay; type: functional, cell-based; conditions: MDA-MB-231, 72 h
[2] = test system: MDA-MB-468; assay: Cytotoxicity against human MDA-MB-468 cells assessed as reduction in cell viability measured after 72 hrs by MTS assay; type: functional, cell-based; conditions: MDA-MB-468, 72 h
[3] = test system: HCT-116; assay: Cytotoxicity against human HCT116 cells assessed as reduction in cell viability measured after 72 hrs by MTS assay; type: functional, cell-based; conditions: HCT-116, 72 h
[4] = Drug uptake in human SW480 cells assessed as cell-bound level per million cells at 25 uM measured after 3 hrs by HPLC-MS analysis; type: ADME, cell-based; conditions: sw480, 3 h
[5] = test system: SW480; assay: Cytotoxicity against human SW480 cells assessed as reduction in cell viability measured after 72 hrs by MTS assay; type: functional, cell-based; conditions: SW480, 72 h
[6] = test system: A549; assay: Cytotoxicity against human A549 cells assessed as reduction in cell viability measured after 72 hrs by MTS assay; type: functional, cell-based; conditions: A549, 72 h
[7] = Prodrug conversion in human SW480 cells assessed as (S)-4-((S)-2-((S)-2-(5-Chloro-1H-indole-2-carboxamido)-3-(naphthalen-2-yl)propanamido)-3-(2H-tetrazol-5-yl)propanamido)-5-oxo-5-((4-(trifluoromethoxy)phenyl)amino)pentanoic Acid formation at 25 uM measured after 24 hrs by HPLC-MS analysis; type: ADME, cell-based; conditions: sw480, 24 h
[8] = target: T1, Catenin beta-1 (Homo sapiens, UniProt P35222)
T1 sequence (P35222 whole entry): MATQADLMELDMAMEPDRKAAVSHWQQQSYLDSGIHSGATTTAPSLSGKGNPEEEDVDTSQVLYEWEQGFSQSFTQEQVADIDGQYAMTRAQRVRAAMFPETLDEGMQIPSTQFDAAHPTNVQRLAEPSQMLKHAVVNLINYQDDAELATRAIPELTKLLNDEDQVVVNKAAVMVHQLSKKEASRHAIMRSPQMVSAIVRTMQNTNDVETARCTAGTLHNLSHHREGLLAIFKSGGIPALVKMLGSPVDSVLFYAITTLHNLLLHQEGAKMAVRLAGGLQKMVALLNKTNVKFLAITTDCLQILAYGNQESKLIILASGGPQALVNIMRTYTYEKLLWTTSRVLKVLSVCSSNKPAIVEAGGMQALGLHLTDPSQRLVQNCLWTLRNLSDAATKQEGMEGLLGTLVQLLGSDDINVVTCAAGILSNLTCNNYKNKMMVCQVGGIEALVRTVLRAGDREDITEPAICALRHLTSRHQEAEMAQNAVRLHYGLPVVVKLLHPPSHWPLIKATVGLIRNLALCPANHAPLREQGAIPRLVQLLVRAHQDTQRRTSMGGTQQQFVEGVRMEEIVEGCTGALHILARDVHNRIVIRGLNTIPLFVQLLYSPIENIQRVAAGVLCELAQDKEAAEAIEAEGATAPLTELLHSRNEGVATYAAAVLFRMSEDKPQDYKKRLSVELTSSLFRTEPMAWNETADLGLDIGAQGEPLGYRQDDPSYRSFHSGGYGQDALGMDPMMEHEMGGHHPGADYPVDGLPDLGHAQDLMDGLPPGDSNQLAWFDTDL

[9] = test system: BT-20; assay: Cytotoxicity against human BT20 cells assessed as reduction in cell viability measured after 72 hrs by MTS assay; type: functional, cell-based; conditions: BT-20, 72 h

Row | Compound | IC50 [8] | Ki [8] | also measured
1 | CCOC(=O)CC[C@H](NC(=O)[C@H](Cc1nn[nH]n1)NC(=O)[C@H](Cc1ccc2ccccc2c1)NC(=O)c1cc2cc(Cl)ccc2[nH]1)C(=O)Nc1ccc(OC(F)(F)F)cc1 |  |  | IC50 [1]: 16.6 µM; IC50 [2]: 10.6 µM; IC50 [3]: 60.6 µM; Drug uptake [4]: 1.4 nmol/million cells; IC50 [5]: 17.7 µM; IC50 [6]: 67.9 µM; Drug metabolism [7]: Metabolite_Notdetected
2 | COC(=O)[C@H](CCC(=O)O)NC(=O)[C@H](CC(=O)O)NC(=O)[C@H](Cc1ccc2ccccc2c1)NC(=O)Cc1nc2cc(Cl)ccc2s1 | > 400 µM | > 100 µM | 
3 | COC(=O)[C@H](CCC(=O)O)NC(=O)[C@H](CC(=O)O)NC(=O)[C@H](Cc1ccc2ccccc2c1)NC(=O)c1cc2cc(C)ccc2[nH]1 | > 400 µM | > 100 µM | 
4 | COC(=O)[C@H](CCC(=O)O)NC(=O)[C@H](CC(=O)O)NC(=O)[C@H](Cc1ccc2ccccc2c1)NC(=O)Cc1nc2cc(Cl)ccc2o1 | > 400 µM | > 100 µM | 
5 | CCOC(=O)CC[C@H](NC(=O)[C@H](CC(=O)OCC)NC(=O)[C@H](Cc1ccc2ccccc2c1)NC(=O)c1cc2cc(OC)ccc2[nH]1)C(=O)OC | > 400 µM | > 100 µM | IC50 [1]: > 200 µM; IC50 [2]: > 200 µM; IC50 [3]: > 200 µM; IC50 [5]: > 200 µM; IC50 [6]: > 200 µM; IC50 [9]: > 200 µM
6 | COC(=O)[C@H](CCC(=O)O)NC(=O)[C@H](CC(=O)O)NC(=O)[C@H](Cc1ccc2ccccc2c1)NC(=O)Cc1c[nH]c2ccc(Cl)cc12 | > 400 µM | > 100 µM | 
7 | COC(=O)[C@H](CCC(=O)O)NC(=O)[C@H](CC(=O)O)NC(=O)[C@H](Cc1ccc2ccccc2c1)NC(=O)c1cc2ccc(Cl)cc2[nH]1 | 60 µM | 15 µM | 
8 | COC(=O)[C@H](CCC(=O)O)NC(=O)[C@H](CC(=O)O)NC(=O)[C@H](Cc1ccc2ccccc2c1)NC(=O)Cc1c[nH]c2cc(Cl)ccc12 | > 400 µM | > 100 µM | 
9 | COC(=O)[C@H](CCC(=O)O)NC(=O)[C@H](CC(=O)O)NC(=O)[C@H](Cc1ccc2ccccc2c1)NC(=O)c1cc2cc(OC)ccc2[nH]1 | > 400 µM | > 100 µM | 
10 | NC(=O)CC[C@H](NC(=O)[C@H](Cc1nn[nH]n1)NC(=O)[C@H](Cc1ccc2ccccc2c1)NC(=O)c1cc2cc(Cl)ccc2[nH]1)C(=O)Nc1ccc(OC(F)(F)F)cc1 |  |  | IC50 [1]: 29.3 µM; IC50 [2]: 26.9 µM; IC50 [3]: 57.8 µM; IC50 [5]: 24.6 µM; IC50 [6]: 47.5 µM; IC50 [9]: 29.3 µM
11 | COC(=O)[C@H](CCC(=O)O)NC(=O)[C@H](CC(=O)O)NC(=O)[C@H](Cc1ccc2ccccc2c1)NC(=O)Cc1nc2ccc(Cl)cc2s1 | 88 µM | 22 µM | 
12 | COC(=O)[C@H](CCC(=O)O)NC(=O)[C@H](CC(=O)O)NC(=O)[C@H](Cc1ccc2ccccc2c1)NC(=O)Cc1nc2cc(Cl)ccc2[nH]1 | > 400 µM | > 100 µM | 
13 | COC(=O)[C@H](CCC(=O)O)NC(=O)[C@H](CC(=O)O)NC(=O)[C@H](Cc1ccc2ccccc2c1)NC(=O)Cc1nc2ccc(Cl)cc2o1 | > 400 µM | > 100 µM | 
